Data as given in patent publication US9447438B2, “Acetyl-coA carboxylases” (OPX Biotechnologies, Inc., priority 2013, dated 2016).

What was measured:
H. elongata ACCase = test: Effect of NH4-3-HP and NH4Cl on H. elongata ACCase; type: biochemical, Halomonas elongata; details: FIG. 4; compared to E. coli ACCase
Experimental: Concentrations of products were measured using the Nanodrop spectophotometer.

E. coli ACCase = E. coli ACCase (Escherichia coli, UniProt P0A9Q5+P0ABD5+P0ABD8+P24182); details: FIG. 4; for effect of salt on E. coli ACCase activity: compared to H. elongata ACCase; for decrease of the activity of the ACCase enzyme relative to control: salt levels near 0.44M
Experimental: Levels of greater than 0.66M (60 g/L) are expected to be present for commercially viable commercial production of 3-HP.
Each gene was amplified by PCRs with Pfu Ultra II HS using the manufacturer's instructions, and the PCR products were purified using the Zymo PCR Cleanup kit. Concentrations of products were measured using the Nanodrop spectophotometer. The Gibson Assembly kit (NEB) was used to construct plasmids expressing the ACCase subunit genes as directed by the manufacturer. The effect of NH4-3-HP and NH4Cl on H. elongata ACCase was tested and compared to the E. coli ACCase.

Chain of E. coli ACCase (P0A9Q5 whole entry): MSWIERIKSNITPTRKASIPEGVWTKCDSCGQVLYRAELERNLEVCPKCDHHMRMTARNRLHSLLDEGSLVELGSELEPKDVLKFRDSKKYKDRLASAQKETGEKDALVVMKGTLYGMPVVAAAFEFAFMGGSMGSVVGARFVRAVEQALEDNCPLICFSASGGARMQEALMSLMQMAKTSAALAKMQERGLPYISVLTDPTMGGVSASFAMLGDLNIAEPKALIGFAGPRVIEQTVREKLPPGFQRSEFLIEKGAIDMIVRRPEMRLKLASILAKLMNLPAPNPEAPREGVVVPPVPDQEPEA
Chain of E. coli ACCase (P0ABD5 whole entry): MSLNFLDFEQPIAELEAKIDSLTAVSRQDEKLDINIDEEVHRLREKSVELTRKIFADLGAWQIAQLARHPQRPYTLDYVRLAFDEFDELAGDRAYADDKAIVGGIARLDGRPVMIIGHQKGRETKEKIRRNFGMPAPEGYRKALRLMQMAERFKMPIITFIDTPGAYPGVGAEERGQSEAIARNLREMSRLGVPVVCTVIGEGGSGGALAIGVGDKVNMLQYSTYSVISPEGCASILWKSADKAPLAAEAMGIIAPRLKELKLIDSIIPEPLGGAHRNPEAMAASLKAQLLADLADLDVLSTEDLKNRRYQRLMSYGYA

| Structure (SMILES) | effect of salt on H. elongata ACCase activity (H. elongata ACCase) | effect of salt on E. coli ACCase activity (E. coli ACCase) | decrease of the activity of the ACCase enzyme relative to control (E. coli ACCase) |
| --- | --- | --- | --- |
| Cl.N [NH4Cl] | less affected | significantly inhibited | approximately 80% |
| N.O=C(O)CCO [NH4-3-HP] | less affected | significantly inhibited | – |
| [Cl-].[Na+] [NaCl] | – | – | approximately 80% |
